The results in this text go back to article PMC9803904, “Selective somatostatin receptor 5 inhibition improves hepatic insulin sensitivity” (Pharmacology Research & Perspectives, 2022).

In assay [1] the target is human SSTR5 (somatostatin receptor 5) (Homo sapiens, UniProt P35346). The assay can be described thus: HTRF cAMP antagonist assay in CHO cells stably expressing human SSTR5, stimulated with SST28 and forskolin. The assay is classed as cell-based. On the technique in general: In TR-FRET formats the signal depends on donor and acceptor labels being close together.
The target of assay [2] is T1, mouse SSTR5 (somatostatin receptor 5) (Mus musculus, UniProt O08858).
T1 sequence (O08858 1-362): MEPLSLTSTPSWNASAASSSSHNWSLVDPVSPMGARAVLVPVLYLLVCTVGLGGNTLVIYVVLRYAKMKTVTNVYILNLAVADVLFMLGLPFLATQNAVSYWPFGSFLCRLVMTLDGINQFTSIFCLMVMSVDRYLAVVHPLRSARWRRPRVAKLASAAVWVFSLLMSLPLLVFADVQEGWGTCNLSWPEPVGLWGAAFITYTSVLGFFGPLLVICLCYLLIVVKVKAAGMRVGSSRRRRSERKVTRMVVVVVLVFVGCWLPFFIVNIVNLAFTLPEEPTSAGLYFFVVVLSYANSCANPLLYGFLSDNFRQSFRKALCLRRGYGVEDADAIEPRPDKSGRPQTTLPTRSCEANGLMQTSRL
In words: HTRF cAMP antagonist assay in CHO cells stably expressing mouse SSTR5, stimulated with SST28 and forskolin. The assay is classed as cell-based.

Sequence of human SSTR5 (somatostatin receptor 5) (P35346 whole entry): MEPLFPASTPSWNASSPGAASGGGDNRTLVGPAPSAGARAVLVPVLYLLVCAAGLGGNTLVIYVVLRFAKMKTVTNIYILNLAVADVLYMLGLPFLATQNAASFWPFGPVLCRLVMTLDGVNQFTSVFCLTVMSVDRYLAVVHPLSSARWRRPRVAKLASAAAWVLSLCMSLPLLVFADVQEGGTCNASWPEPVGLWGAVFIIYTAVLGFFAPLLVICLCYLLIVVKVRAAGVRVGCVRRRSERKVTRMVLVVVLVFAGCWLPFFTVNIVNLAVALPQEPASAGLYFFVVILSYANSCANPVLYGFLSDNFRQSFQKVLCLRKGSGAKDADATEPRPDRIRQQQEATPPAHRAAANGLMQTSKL

For `Cc1c(C(=O)O)ccn(C2CCN(Cc3cc(C4CC4)c(-c4ccc(F)cc4)c(F)c3OC(C)C)CC2)c1=O` [compound-1], the IC50 (as a rule, the concentration that inhibits the measured activity by half) in assay [1] stood at 9.8 nM; in assay [2] it was 31 nM.
